# Experimental data published in patent publication US20130309238A1, “SIGNAL TRANSDUCTION PATHWAY MODULATION” (NEWCASTLE INNOVATION LIMITED, priority 2010, published 2013).
# Assays:
# HDM-allergic mice [1] = test: AHR measurement in house dust mite (HDM)-induced allergic airways disease; format: in vivo, BALB/c mice; conditions: HDM-sensitized and challenged mice; treatment during allergen challenge
# Experimental: Mice were sensitized and challenged by exposing them intranasally to house dust mite (HDM) (50 mcg daily at day 0, 1, and 2 followed by 5×5 mcg daily from day 14 to day 17 delivered in 50 μl of sterile saline). The single dose of HDM employed in initial studies was 50 mcg/50 μl of sterile saline. Non-sensitized mice received sterile saline only.
# AHR was assessed invasively in separate groups of anesthetized mice by measurement of total lung resistance and dynamic compliance. Percentage increase over baseline (water) in response to nebulised methacholine was calculated.
# (§1) Specifically, allergic mice were treated with a commercially available (Ambion) in-vitro validated small interfering (si)RNA directed against Midline-1 (SEQ ID NO:3) (MID1 siRNA) or a scrambled nonsense siRNA (control) following previously established protocols. BALB/c mice were anesthetised with isoflurane before being sensitised with the intranasal administration of either 50 μg House Dust Mite antigen (HDM) in 50 μl of sterile saline or 50 μl of sterile saline in control groups. This sensitisation was repeated at days 1 and 2 following initial sensitisation. On day 14 following initial sensitisation the mice were again anesthetised with isoflurane before receiving intranasal challenge with 5 μg of HDM in […] of sterile water. This challenge dosage was repeated daily from day 14 through 17. Mice received intranasal administration of maked Mid-1 siRNA or scramble control in 25 μl of saline under isoflurane anaesthesia on days 13, 15 and 17, through the period of HDM challenge. On day 18, 24 hrs after the final HDM challenge, the mice were sacrificed with an excess dose of sodium pentobarbitone administered intraperitoneally (200 μl total volume).
# HDM-allergic mice [2] = test: Airway inflammation, mucus-producing cells and BALF cells in HDM-induced allergic airways disease; format: in vivo, BALB/c mice
# Experimental: as §1, with “Mice were sensitized and challenged by exposing them intranasally to house dust mite (HDM) (50 mcg daily at day 0, 1, and 2 followed by 5×5 mcg daily from day 14 to day 17 delivered in 50 μl of sterile saline). The single dose of HDM employed in initial studies was 50 mcg/50 μl of sterile saline. Non-sensitized mice received sterile saline only. Lung tissue was stained, cells identified by morphological criteria, and quantitated by counting ten high power fields (HPFs) in each slide. […] Specifically,” for “Specifically,”
# [3] = tested on: peribronchial lymph node cells; test: Cytokine release from in-vitro HDM-stimulated peribronchial lymph node cells; format: in vivo, BALB/c mice; conditions: HDM-sensitized and challenged mice
# Experimental: Peribronchial lymph node cells were excised, filtered, and cultured in the presence or absence of 50 mcg/ml HDM (optimal concentration) for 6 days. IL-13, IL-5, and IFN-γ were determined by ELISA (BD Biosciences Pharmingen).
# CCL20 = CCL20 expression/release in airway wall or lung homogenates of HDM-allergic mice; format: in vivo, BALB/c mice; conditions: HDM-sensitized and challenged mice
# Experimental: Total RNA was isolated with mirVana m/miRNA Isolation kit (Ambion) from lower airway tissue that was separated by blunt dissection allowing effective separation of the airway wall from the parenchyma (Mattes, 2009). quantitative RT-PCR (qRT-PCR) was performed with SYBR® Green (Invitrogen) using an Eppendorf […] (threshold cycle) quantification was performed using Eppendorf Realplex analysis software 2.2. Mouse mRNA expression was normalised to HPRT, human mRNA to GAPDH. Fold change was calculated using delta delta CT values relative to control groups.
# PP2A [4] = target: PP2A (Mus musculus, UniProt P63330); conditions: HDM-allergic mice, daily intranasal treatment
# PP2A (Mus musculus, UniProt P63330), sequence (P63330 whole entry): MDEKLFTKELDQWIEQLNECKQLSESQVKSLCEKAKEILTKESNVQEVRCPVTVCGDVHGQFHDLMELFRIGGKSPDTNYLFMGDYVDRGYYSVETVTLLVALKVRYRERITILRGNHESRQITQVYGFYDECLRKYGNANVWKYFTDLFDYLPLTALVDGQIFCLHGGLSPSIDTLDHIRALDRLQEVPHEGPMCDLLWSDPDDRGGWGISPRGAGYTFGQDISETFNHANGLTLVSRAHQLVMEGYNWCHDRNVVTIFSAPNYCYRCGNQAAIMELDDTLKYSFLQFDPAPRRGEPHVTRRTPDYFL
# PP2A (Mus musculus, UniProt P63330), sequence (Q76MZ3 whole entry partner): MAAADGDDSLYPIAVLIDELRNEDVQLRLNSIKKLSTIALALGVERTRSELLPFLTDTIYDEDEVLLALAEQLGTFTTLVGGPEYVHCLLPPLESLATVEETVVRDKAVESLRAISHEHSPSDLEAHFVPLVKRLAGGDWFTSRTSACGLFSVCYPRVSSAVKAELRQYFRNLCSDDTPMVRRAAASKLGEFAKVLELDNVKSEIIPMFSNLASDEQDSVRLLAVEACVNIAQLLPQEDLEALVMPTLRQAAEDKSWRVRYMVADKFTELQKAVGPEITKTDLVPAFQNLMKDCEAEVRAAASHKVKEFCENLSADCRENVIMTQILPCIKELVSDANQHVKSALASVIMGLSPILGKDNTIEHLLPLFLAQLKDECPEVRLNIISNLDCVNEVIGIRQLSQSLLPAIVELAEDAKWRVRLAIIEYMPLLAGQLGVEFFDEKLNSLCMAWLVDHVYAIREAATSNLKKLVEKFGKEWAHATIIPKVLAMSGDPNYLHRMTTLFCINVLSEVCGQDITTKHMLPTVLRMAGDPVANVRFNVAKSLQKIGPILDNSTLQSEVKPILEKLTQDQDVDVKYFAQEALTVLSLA
# Experimental: PP2a activity was measured by R&D Systems PP2A DuoSet IC activity assay kit according to the manufacturer's instructions. This was performed on homogenized mouse lungs and harvested BEAS-2B cells.
# PP2A [5] = target: T1, PP2A (Homo sapiens, UniProt P67775); test: PP2A activity in HDM-stimulated human bronchial epithelial cells (BEAS-2B); format: cell-based; conditions: BEAS-2B + crude HDM extract, 24 hours; salbutamol 0.1, 1, 10 μM; mitoxantrone analogue 1, 5, 25 μg/ml; AAL(s) 0.5, 2 μM
# T1 construct: endogenous in cells; host or cells: BEAS-2B
# T1 sequence (P67775 whole entry): as the sequence (P63330 whole entry) above, with L5V counted along it
# T1 sequence (P30153 whole entry partner): as the sequence (Q76MZ3 whole entry partner) above, with T324S counted along it
# Experimental: • Activation of PP2A The inventors have examined the ability of known PP2A agonists to influence PP2A activity in human bronchial epithelial cells stimulated with crude house dust mite extract. Immortalised human bronchial epithelial cells (BEAS-2B) were seeded at 1×10^5 cells/well in 12-well tissue culture plates and allowed to reach 80% confluency. Cells were then treated with either salbutamol, a mitoxantrone analogue, or AAL(s), at a range of tolerable concentrations (0.1, 1 and 10 μM for salbutamol; 1, 5 and 25 μg/ml for the nitoxantrone analaogue; and 0.5 and 2 μM for AAL(s)). Simultaneously, cells were stimulated with crude House Dust Mite (HDM) extract and left for 24 hours. Cells were then collected, washed, lysed, and PP2A activity assayed (R&D Systems), measuring phosphatase activity when fed a synthetic substrate. PP2A activity was reduced upon HDM stimulation compared to the non-stimulated media only group (representing physiologically normal activity levels).
# [6] = tested on: ovalbumin-challenged mice; conditions: OVA 3x a week for 3 months, AAL(S) daily
# Description: (§2) The inventors then determined the ability of AAL(S) to protect against airway fibrosis in two mouse models, a chronic ovalbumin model of allergic airways disease and an acute bleomycin-induced fibrosis model.
# Mice received ovalbumin (OVA)+alumn IP at day 0 and 2 weeks. Mice then received OVA 3× a week for 3 months. AAL treated mice received AAL(S) daily throughout the 3 month challenge period.
# bleomycin-treated mice = conditions: bleomycin intratracheally, sacrificed after 23 days; AAL(S) daily
# Description: as §2
# In the bleomycin model, mice received bleomycin intratracheally and were sacrificed after 23 days. AAL(S) treated mice received AAL(S) daily post bleomycin administration.
# [7] = tested on: sphingosine-1-phosphate receptors; conditions: Don et al., 2007; cited from earlier work
# sphingosine kinase 2 = sphingosine kinase 2 (Homo sapiens, UniProt Q9NRA0); conditions: Don et al., 2007; cited from earlier work
# sphingosine kinase 2, sequence (Q9NRA0 whole entry, species assumed): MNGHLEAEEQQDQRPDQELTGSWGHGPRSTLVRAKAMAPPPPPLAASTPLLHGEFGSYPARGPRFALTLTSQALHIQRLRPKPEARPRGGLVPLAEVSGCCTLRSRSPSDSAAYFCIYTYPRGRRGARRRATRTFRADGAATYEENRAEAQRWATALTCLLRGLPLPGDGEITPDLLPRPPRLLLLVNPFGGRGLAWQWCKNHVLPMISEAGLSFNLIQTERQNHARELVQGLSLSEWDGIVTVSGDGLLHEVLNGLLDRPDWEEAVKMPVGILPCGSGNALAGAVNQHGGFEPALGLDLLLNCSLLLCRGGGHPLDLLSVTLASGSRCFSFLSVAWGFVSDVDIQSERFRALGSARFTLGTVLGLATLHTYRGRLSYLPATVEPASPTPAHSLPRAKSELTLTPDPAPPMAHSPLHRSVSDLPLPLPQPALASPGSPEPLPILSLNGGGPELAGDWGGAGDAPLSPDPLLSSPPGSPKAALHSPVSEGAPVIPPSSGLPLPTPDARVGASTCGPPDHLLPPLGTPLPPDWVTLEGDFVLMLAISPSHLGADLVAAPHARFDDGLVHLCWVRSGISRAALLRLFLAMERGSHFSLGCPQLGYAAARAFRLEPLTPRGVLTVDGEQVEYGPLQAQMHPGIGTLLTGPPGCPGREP
# [8] = in vivo; cited from earlier work
# [9] = HDM-allergic and challenged mice
Structure (SMILES),airways hyperresponsiveness (total lung resistance in response to inhaled methacholine) (HDM-allergic mice [1]),"airways inflammation (HDM-allergic mice [2]; HDM-sensitized and challenged mice, treatment during allergen challenge)",Th2 cytokine release in allergen-stimulated peribronchial lymphnode cultures [3],CCL20 release (levels in lung homogenates) (CCL20),PP2A activity in the lungs (PP2A [4]),PP2A activity (phosphatase activity on synthetic substrate) (PP2A [5]),lung function (forced vital capacity and forced expiratory volume in 100 milliseconds) [6],airways fibrosis (collagen deposition surrounding the airways) ([6]; wildtype BALB/c mice),collagen deposition in airways (bleomycin-treated mice),binding to sphingosine-1-phosphate receptors [7],phosphorylation by sphingosine kinase 2 (sphingosine kinase 2),lymphopenia [8],eosinophils (BALF) (HDM-allergic mice [2]; [9]),lymphocytes (BALF) (HDM-allergic mice [2]; [9]),neutrophils (BALF) (HDM-allergic mice [2]; [9])
"CCCCCCCOc1ccc(CCC(C)(N)CO)cc1 [AAL(S), 2-amino-4-(4-heptyloyphenol)-2-methylbutanol]",precluded the development,precluded the development,reduced,reduced,reactivates PP2A in the lungs,fully restored,improved,protected,protected,does not bind,cannot be phosphorylated,does not cause lymphopenia,,,
CCCCCCCCc1ccc(CCC(N)(CO)CO)cc1 [FTY720],reduced,,,reduced,,,,,,,,,reduced,reduced,reduced
CCCCCCCCc1ccc(CCC(N)(CO)COP(=O)(O)O)cc1 (stereo not drawn) [pFTY720],partial reduction,,,,,,,,,,,,partial reduction,,partial reduction
CC(C)(C)NCC(O)c1ccc(O)c(CO)c1 (stereo not drawn) [salbutamol],,,,,,restore PP2A activity to a significant level,,,,,,,,,
